The record followed here is ChEMBL document CHEMBL2176959, “Design and synthesis of potent, orally efficacious hydroxyethylamine derived β-site amyloid precursor protein cleaving enzyme (BACE1) inhibitors” (J Med Chem, 2012).

Series [1] can be described thus: Oral bioavailability in Sprague-Dawley rat at 10 mg/kg. The class given is ADME, organism-based. Particulars: in vivo.
Series [2] in a line: Tmax in Sprague-Dawley rat at 10 mg/kg, po. The class given is ADME, organism-based. Also noted: dose 10 mg/kg, route oral. The note with it: in vivo.
Series [3] in a line: Cmax in Sprague-Dawley rat at 10 mg/kg, po. The format is ADME, organism-based. Also noted: dose 10 mg/kg, route oral. Particulars: in vivo.
Series [4] can be described thus: AUC (0 to infinity) in Sprague-Dawley rat at 10 mg/kg, po. The format is ADME, organism-based. Also noted: time infinity, dose 10 mg/kg, route oral. The note with it: plasma.
Series [5] is described as follows: Volume of distribution at steady state in Sprague-Dawley rat at 2 mg/kg, iv. The note with it: in vivo, read-out: Vdss. Further details: dose 2 mg/kg, route intravenous. The format is ADME, organism-based.
Series [6] can be described thus: Plasma concentration in Sprague-Dawley rat at 30 mg/kg, po at 4 hrs. The format is ADME, organism-based. Further details: dose 30 mg/kg, route oral.
The nature of series [7]: Drug uptake in Sprague-Dawley rat CSF at 30 mg/kg, po at 4 hrs. Further details: dose 30 mg/kg, route oral. The format is ADME, organism-based. Particulars: cerebrospinal fluid, read-out: Drug uptake.
A further series in a line: in vitro. The note with it: pig, LLC-PK1.

Turning to `COCC(=O)N[C@@H](Cc1cccc(-c2nccs2)c1)[C@H](O)CN[C@H]1CC2(CCC2)Oc2ncc(CC(C)(C)C)cc21`, the bioavailability in series [1] turned out to be 120%. The Tmax (in general, the time at which the peak concentration occurs) in series [2] turned out to be 3.33 h. Further, the Cmax (as a rule, the maximum level reached in the sampled fluid or tissue) in series [3] amounted to 1890 ng/mL. The AUC(0-inf) – broadly, the area under the concentration-time curve extrapolated to infinity – in series [4] came out at 9030 ng·h/mL. Also, the Vd in series [5] is 2.19 L/kg. The concentration at 4 h in series [6] was 3270 nM; in series [7], 52 nM.

Turning to `COCC(=O)N[C@@H](Cc1cccc(-c2ccncc2)c1)[C@H](O)CN[C@H]1CC2(CCC2)Oc2ncc(CC(C)(C)C)cc21`, the Papp – broadly, the rate of passage across a membrane or cell layer, normalised by area and donor concentration – at 2 h in “in vitro” worked out at 22 ×10⁻⁶ cm/s.

Regarding `C#Cc1cccc(C[C@H](NC(=O)COC)[C@H](O)CN[C@H]2CC3(CCC3)Oc3ncc(CC(C)(C)C)cc32)c1`, in series [1], the bioavailability was 100%. Moreover, the Tmax in series [2] amounted to 5.33 h. In addition, in series [3], the peak level (Cmax) was 4860 ng/mL. The AUC(0-inf) in series [4] came out at 24200 ng·h/mL. In addition, in series [5], the Vd stood at 1.54 L/kg. Besides, the figures for the concentration at 4 h in series [6] and in series [7] were 3540 nM and 78 nM, respectively.

In the series “in vitro”, `COCC(=O)N[C@@H](Cc1cc(-c2nccs2)ccc1F)[C@H](O)CN[C@H]1CC2(CCC2)Oc2ncc(CC(C)(C)C)cc21` returned a Papp at 2 h of 11 ×10⁻⁶ cm/s.

`COCC(=O)N[C@@H](Cc1ccc(F)c(-c2nccs2)c1)[C@H](O)CN[C@H]1CC2(CCC2)Oc2ncc(CC(C)(C)C)cc21` displayed an apparent permeability coefficient (Papp) at 2 h in the series “in vitro” of 28 ×10⁻⁶ cm/s.
